# From publication PMC7403421, “Uncovering a possible role of reactive oxygen species in magnetogenetics” (Scientific Reports, 2020)
# Target: T1, TRPV1 (Rattus norvegicus, UniProt O35433)
# T1 construct: rat TRPV1 with an N-terminally fused camelidae anti-GFP nanobody (αGFPnb-TRPV1), co-expressed with eGFP-tagged ferritin dimer in HEK-293T cells
# Assay: agonist dose response in Ca2+-dependent SEAP reporter and fluorescent calcium imaging in HEK-293T cells expressing TRPV1
# Type: cell-based
# T1 sequence (O35433 whole entry, the tested form may be a part): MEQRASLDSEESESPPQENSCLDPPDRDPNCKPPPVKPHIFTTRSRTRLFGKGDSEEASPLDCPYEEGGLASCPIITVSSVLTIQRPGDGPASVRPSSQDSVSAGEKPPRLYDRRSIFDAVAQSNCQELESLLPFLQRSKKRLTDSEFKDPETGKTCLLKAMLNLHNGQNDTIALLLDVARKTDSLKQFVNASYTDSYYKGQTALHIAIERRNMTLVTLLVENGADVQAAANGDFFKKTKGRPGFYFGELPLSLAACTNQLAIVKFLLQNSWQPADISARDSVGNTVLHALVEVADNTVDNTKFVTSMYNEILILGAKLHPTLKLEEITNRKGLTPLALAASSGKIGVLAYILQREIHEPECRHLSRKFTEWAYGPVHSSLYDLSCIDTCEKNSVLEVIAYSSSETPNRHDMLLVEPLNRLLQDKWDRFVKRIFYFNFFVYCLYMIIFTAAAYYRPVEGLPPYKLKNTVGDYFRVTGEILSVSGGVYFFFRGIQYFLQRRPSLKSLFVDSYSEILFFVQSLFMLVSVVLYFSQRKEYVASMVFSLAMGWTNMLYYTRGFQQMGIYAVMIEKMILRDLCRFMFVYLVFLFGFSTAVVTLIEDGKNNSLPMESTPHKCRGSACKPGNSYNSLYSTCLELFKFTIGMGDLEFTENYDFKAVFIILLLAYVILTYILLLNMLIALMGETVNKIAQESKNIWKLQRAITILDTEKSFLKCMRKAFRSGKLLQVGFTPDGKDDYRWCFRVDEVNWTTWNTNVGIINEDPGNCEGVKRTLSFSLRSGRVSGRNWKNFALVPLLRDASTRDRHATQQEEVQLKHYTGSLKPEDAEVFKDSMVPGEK
smiles,measurement,value
COc1cc(CNC(=O)CCCC/C=C/C(C)C)ccc1O [capsaicin],agonist dose response in Ca2+-dependent SEAP reporter and fluorescent calcium im,Dose dependent TRPV1-mediated SEAP production was observed with respect to both capsaicin and inhibitor concentration
